# ChEMBL document CHEMBL5236588 (J Med Chem, 2022)
# Residues, ends and D or L forms follow the SMILES beside them.
# Experiments:
# [1] = organism: Homo sapiens; assay: Potency index, ratio of M8 Ki to test compound Ki for inhibition of FXIIa (unknown origin)
# [2] = Inhibition of FXIIa (unknown origin) using Ac-QRFR-pNA as substrate measured at 30 sec interval by microplate reader assay; parameters: species or system Homo sapiens
# [3] = target: Plasminogen (Homo sapiens, UniProt P00747); assay: Inhibition of human plasmin using Ac-RM(O2)YR-pNA as substrate
# Plasminogen, sequence (P00747 97-580 limits assumed): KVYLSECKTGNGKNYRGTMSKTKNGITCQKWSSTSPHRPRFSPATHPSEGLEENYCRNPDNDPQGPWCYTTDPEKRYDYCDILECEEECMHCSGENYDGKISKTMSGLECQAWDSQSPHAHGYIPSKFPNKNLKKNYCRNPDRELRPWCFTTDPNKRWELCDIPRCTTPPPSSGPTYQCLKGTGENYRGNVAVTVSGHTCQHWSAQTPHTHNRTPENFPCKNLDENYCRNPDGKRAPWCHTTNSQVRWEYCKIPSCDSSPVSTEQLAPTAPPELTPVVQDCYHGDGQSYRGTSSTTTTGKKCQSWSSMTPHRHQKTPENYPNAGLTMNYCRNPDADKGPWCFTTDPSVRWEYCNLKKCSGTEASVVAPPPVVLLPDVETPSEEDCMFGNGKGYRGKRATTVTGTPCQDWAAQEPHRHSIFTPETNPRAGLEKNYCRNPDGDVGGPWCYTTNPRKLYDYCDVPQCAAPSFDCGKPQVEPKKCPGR
# Plasminogen, sequence (P00747 581-810 limits assumed): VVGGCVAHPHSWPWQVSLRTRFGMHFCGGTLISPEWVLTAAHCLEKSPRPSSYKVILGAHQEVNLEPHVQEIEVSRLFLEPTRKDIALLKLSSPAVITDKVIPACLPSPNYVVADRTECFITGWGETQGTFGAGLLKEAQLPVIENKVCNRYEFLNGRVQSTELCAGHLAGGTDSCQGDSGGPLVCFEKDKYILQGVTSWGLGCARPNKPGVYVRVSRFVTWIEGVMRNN
# [4] = Inhibition of human FXa using Z-Pyr-GR-MCA as substrate
# [5] = Inhibition of human cationic trypsin using Boc-VPR-MCA as susbtrate
SMILES,Ratio Ki [1],Ki [2],Ki [3],IC50 [4],Ki [5]
CC[C@H](C)[C@@H]1NC(=O)[C@@H]2CSSC[C@H](NC(=O)[C@H](CCC(N)=O)NC(=O)CNC(=O)CN)C(=O)N[C@@H](Cc3ccccc3)C(=O)N[C@@H](CCCNC(=N)N)C(=O)N[C@@H]([C@@H](C)CC)C(=O)N[C@@H](CC(C)C)C(=O)N[C@@H](CCCCN)C(=O)N[C@@H](CCCCN)C(=O)N[C@@H]3CSSC[C@H](NC1=O)C(=O)N[C@@H](CCCNC(=N)N)C(=O)NCC(=O)N[C@@H](CC(N)=O)C(=O)NCC(=O)N[C@@H](Cc1ccc(O)cc1)C(=O)N[C@H](C(=O)NCC(=O)N[C@@H](C)C(=O)O)CSSC[C@H](NC(=O)[C@H](CC(=O)O)NC(=O)[C@H](CO)NC(=O)[C@H](CC(=O)O)NC(=O)[C@H](CCCNC(=N)N)NC(=O)[C@H](CCCNC(=N)N)NC3=O)C(=O)N1CCC[C@H]1C(=O)NCC(=O)N[C@@H](C)C(=O)N2,–,157 nM,–,–,–
"CC[C@H](C)[C@@H]1NC(=O)[C@@H]2CSSC[C@H](NC(=O)[C@H](CCC(N)=O)NC(=O)CNC(=O)CN)C(=O)N[C@@H](Cc3ccccc3)C(=O)N[C@@H](CCCNC(=N)N)C(=O)N[C@@H]([C@@H](C)CC)C(=O)N[C@@H](CC(C)C)C(=O)N[C@@H](CCCCN)C(=O)N[C@@H](CCCCN)C(=O)N[C@H]3CSSC[C@H](NC1=O)C(=O)N[C@@H](CCCNC(=N)N)C(=O)NCC(=O)N[C@@H](CC(N)=O)C(=O)NCC(=O)N[C@@H](Cc1ccc(O)cc1)C(=O)N[C@H](C(=O)N[C@@H](C)C(=O)N[C@@H](CO)C(=O)O)CSSC[C@H](NC(=O)[C@H](CC(=O)O)NC(=O)[C@H](CO)NC(=O)[C@H](CC(=O)O)NC(=O)[C@H](CCCNC(=N)N)NC(=O)[C@H](CCCNC(=N)N)NC3=O)C(=O)N1CCC[C@H]1C(=O)NCC(=O)N[C@@H](C)C(=O)N2 (HELM PEPTIDE1{G.G.Q.C.F.R.I.L.K.K.C.R.R.D.S.D.C.P.G.A.C.I.C.R.G.N.G.Y.C.A.S}$PEPTIDE1,PEPTIDE1,4:R3-21:R3|PEPTIDE1,PEPTIDE1,11:R3-23:R3|PEPTIDE1,PEPTIDE1,17:R3-29:R3$$$V2.0)",-4.2,106 nM,–,–,–
"CC[C@H](C)[C@@H]1NC(=O)[C@@H]2CSSC[C@@H]3NC(=O)[C@H](CCC(N)=O)NC(=O)CNC(=O)CNC(=O)[C@H](CO)NC(=O)[C@H](CO)NC(=O)CNC(=O)[C@@H]4CSSC[C@H](NC(=O)[C@H](CC(=O)O)NC(=O)[C@H](CO)NC(=O)[C@H](CC(=O)O)NC(=O)[C@H](CCCNC(=N)N)NC(=O)[C@H](CCCNC(=N)N)NC(=O)[C@H](CSSC[C@H](NC1=O)C(=O)N[C@@H](CCCNC(=N)N)C(=O)NCC(=O)N[C@@H](CC(N)=O)C(=O)NCC(=O)N[C@@H](Cc1ccc(O)cc1)C(=O)N4)NC(=O)[C@H](CCCCN)NC(=O)[C@H](CCCCN)NC(=O)[C@H](CC(C)C)NC(=O)[C@H]([C@@H](C)CC)NC(=O)[C@H](CCCNC(=N)N)NC(=O)[C@H](Cc1ccccc1)NC3=O)C(=O)N1CCC[C@H]1C(=O)NCC(=O)N[C@@H](C)C(=O)N2 (HELM PEPTIDE1{A.C.I.C.R.G.N.G.Y.C.G.S.S.G.G.Q.C.F.R.I.L.K.K.C.R.R.D.S.D.C.P.G}$PEPTIDE1,PEPTIDE1,2:R3-17:R3|PEPTIDE1,PEPTIDE1,4:R3-24:R3|PEPTIDE1,PEPTIDE1,10:R3-30:R3|PEPTIDE1,PEPTIDE1,1:R1-32:R2$$$V2.0)",1.5,131 nM,–,–,–
"CC[C@H](C)[C@@H]1NC(=O)[C@@H]2CSSC[C@@H]3NC(=O)[C@H](CCC(N)=O)NC(=O)CNC(=O)CNC(=O)[C@H](CO)NC(=O)CNC(=O)[C@H](CO)NC(=O)CNC(=O)[C@@H]4CSSC[C@H](NC(=O)[C@H](CC(=O)O)NC(=O)[C@H](CO)NC(=O)[C@H](CC(=O)O)NC(=O)[C@H](CCCNC(=N)N)NC(=O)[C@H](CCCNC(=N)N)NC(=O)[C@H](CSSC[C@H](NC1=O)C(=O)N[C@@H](CCCNC(=N)N)C(=O)NCC(=O)N[C@@H](CC(N)=O)C(=O)NCC(=O)N[C@@H](Cc1ccc(O)cc1)C(=O)N4)NC(=O)[C@H](CCCCN)NC(=O)[C@H](CCCCN)NC(=O)[C@H](CC(C)C)NC(=O)[C@H]([C@@H](C)CC)NC(=O)[C@H](CCCNC(=N)N)NC(=O)[C@H](Cc1ccccc1)NC3=O)C(=O)N1CCC[C@H]1C(=O)NCC(=O)N[C@@H](C)C(=O)N2 (HELM PEPTIDE1{A.C.I.C.R.G.N.G.Y.C.G.S.G.S.G.G.Q.C.F.R.I.L.K.K.C.R.R.D.S.D.C.P.G}$PEPTIDE1,PEPTIDE1,2:R3-18:R3|PEPTIDE1,PEPTIDE1,4:R3-25:R3|PEPTIDE1,PEPTIDE1,10:R3-31:R3|PEPTIDE1,PEPTIDE1,1:R1-33:R2$$$V2.0)",1.4,140 nM,–,–,–
CC[C@H](C)[C@@H]1NC(=O)[C@H](CCCNC(=N)N)NC(=O)[C@H](Cc2ccccc2)NC(=O)[C@@H]2CSSC[C@H]3NC(=O)[C@H](C)NC(=O)CNC(=O)[C@@H]4CCCN4C(=O)[C@@H]4CSSC[C@H](NC(=O)[C@H](Cc5ccc(O)cc5)NC(=O)CNC(=O)[C@H](CC(N)=O)NC(=O)CNC(=O)[C@H](CCCNC(=N)N)NC(=O)[C@H](CSSC[C@H](NC(=O)[C@H](CCCCN)NC(=O)[C@H](CCCCN)NC(=O)[C@H](CC(C)C)NC1=O)C(=O)N[C@@H](CCCNC(=N)N)C(=O)N[C@@H](CCCNC(=N)N)C(=O)N[C@@H](CC(=O)O)C(=O)N[C@@H](CO)C(=O)N[C@@H](CC(=O)O)C(=O)N4)NC(=O)[C@H]([C@@H](C)CC)NC3=O)C(=O)NCC(=O)N[C@@H](CO)C(=O)NCC(=O)N[C@@H](CCC(N)=O)C(=O)N2,1.2,156 nM,–,–,–

# Compounds with a lower Ki [2], results first:
Ratio Ki [1],Ki [2],Ki [3],IC50 [4],Ki [5],SMILES
2.1,92 nM,–,–,–,"CC[C@H](C)[C@@H]1NC(=O)[C@@H]2CSSC[C@@H]3NC(=O)[C@H](CCC(N)=O)NC(=O)CNC(=O)CNC(=O)[C@H](CC(=O)O)NC(=O)[C@H](CO)NC(=O)CNC(=O)[C@@H]4CSSC[C@H](NC(=O)[C@H](CC(=O)O)NC(=O)[C@H](CO)NC(=O)[C@H](CC(=O)O)NC(=O)[C@H](CCCNC(=N)N)NC(=O)[C@H](CCCNC(=N)N)NC(=O)[C@H](CSSC[C@H](NC1=O)C(=O)N[C@@H](CCCNC(=N)N)C(=O)NCC(=O)N[C@@H](CC(N)=O)C(=O)NCC(=O)N[C@@H](Cc1ccc(O)cc1)C(=O)N4)NC(=O)[C@H](CCCCN)NC(=O)[C@H](CCCCN)NC(=O)[C@H](CC(C)C)NC(=O)[C@H]([C@@H](C)CC)NC(=O)[C@H](CCCNC(=N)N)NC(=O)[C@H](Cc1ccccc1)NC3=O)C(=O)N1CCC[C@H]1C(=O)NCC(=O)N[C@@H](C)C(=O)N2 (HELM PEPTIDE1{A.C.I.C.R.G.N.G.Y.C.G.S.D.G.G.Q.C.F.R.I.L.K.K.C.R.R.D.S.D.C.P.G}$PEPTIDE1,PEPTIDE1,2:R3-17:R3|PEPTIDE1,PEPTIDE1,4:R3-24:R3|PEPTIDE1,PEPTIDE1,10:R3-30:R3|PEPTIDE1,PEPTIDE1,1:R1-32:R2$$$V2.0)"
2.6,76 nM,–,–,–,"CC[C@H](C)[C@@H]1NC(=O)[C@@H]2CSSC[C@@H]3NC(=O)[C@H](CCC(N)=O)NC(=O)CNC(=O)CNC(=O)CNC(=O)[C@H](CO)NC(=O)CNC(=O)[C@@H]4CSSC[C@H](NC(=O)[C@H](CC(=O)O)NC(=O)[C@H](CO)NC(=O)[C@H](CC(=O)O)NC(=O)[C@H](CCCNC(=N)N)NC(=O)[C@H](CCCNC(=N)N)NC(=O)[C@H](CSSC[C@H](NC1=O)C(=O)N[C@@H](CCCNC(=N)N)C(=O)NCC(=O)N[C@@H](CC(N)=O)C(=O)NCC(=O)N[C@@H](Cc1ccc(O)cc1)C(=O)N4)NC(=O)[C@H](CCCCN)NC(=O)[C@H](CCCCN)NC(=O)[C@H](CC(C)C)NC(=O)[C@H]([C@@H](C)CC)NC(=O)[C@H](CCCNC(=N)N)NC(=O)[C@H](Cc1ccccc1)NC3=O)C(=O)N1CCC[C@H]1C(=O)NCC(=O)N[C@@H](C)C(=O)N2 (HELM PEPTIDE1{A.C.I.C.R.G.N.G.Y.C.G.S.G.G.G.Q.C.F.R.I.L.K.K.C.R.R.D.S.D.C.P.G}$PEPTIDE1,PEPTIDE1,2:R3-17:R3|PEPTIDE1,PEPTIDE1,4:R3-24:R3|PEPTIDE1,PEPTIDE1,10:R3-30:R3|PEPTIDE1,PEPTIDE1,1:R1-32:R2$$$V2.0)"
–,25 nM,283 nM,> 5 µM,157 nM,"CC[C@H](C)[C@@H]1NC(=O)[C@@H]2CSSC[C@H](NC(=O)[C@H](CCC(N)=O)NC(=O)CNC(=O)CN)C(=O)N[C@@H](Cc3ccccc3)C(=O)N[C@@H](CCCNC(=N)N)C(=O)N[C@@H]([C@@H](C)CC)C(=O)N[C@@H](CC(C)C)C(=O)N[C@@H](CCCCN)C(=O)N[C@@H](CCCCN)C(=O)N[C@H]3CSSC[C@H](NC1=O)C(=O)N[C@@H](CCCNC(=N)N)C(=O)NCC(=O)N[C@@H](CC(N)=O)C(=O)NCC(=O)N[C@@H](Cc1ccc(O)cc1)C(=O)N[C@H](C(=O)NCC(=O)N[C@@H](CO)C(=O)O)CSSC[C@H](NC(=O)[C@H](CC(=O)O)NC(=O)[C@H](CO)NC(=O)[C@H](CC(=O)O)NC(=O)[C@H](CCCNC(=N)N)NC(=O)[C@H](CCCNC(=N)N)NC3=O)C(=O)N1CCC[C@H]1C(=O)NCC(=O)N[C@@H](C)C(=O)N2 (HELM PEPTIDE1{G.G.Q.C.F.R.I.L.K.K.C.R.R.D.S.D.C.P.G.A.C.I.C.R.G.N.G.Y.C.G.S}$PEPTIDE1,PEPTIDE1,4:R3-21:R3|PEPTIDE1,PEPTIDE1,11:R3-23:R3|PEPTIDE1,PEPTIDE1,17:R3-29:R3$$$V2.0)"
